Data on 2 compounds can be found in patent publication US20240327364A1, “THERAPEUTIC TARGETING OF GPR68 TO INDUCE FERROPTOSIS” (University Of Maryland, Baltimore, priority 2023, published 2024).

One test concerns the target T1, GPR99 (Homo sapiens, UniProt Q96P68).
T1 construct: host or cells: Chem-1 cells with promiscuous Gα15
In words: GPCR Profiler. Format: cell-based.

A further test deals with T2, MET(M1250T) (Homo sapiens, UniProt P08581, M1250T).
T2 construct: purchased DiscoveRx (Fremont, CA)
The test can be described thus: KinomeScan. The settings on record: read-out: % Control. Format: binding.

Test [1] addresses T3, RSK3(Kin.Dom.2-C-terminal) (Homo sapiens, UniProt Q15349).
T3 construct: RSK3(Kin.Dom.2-C-terminal); purchased DiscoveRx (Fremont, CA)
In words: KinomeScan. It is filed as binding. The settings on record: read-out: % Control.

For the next test, the target named is T4, TLK1 (Homo sapiens, UniProt Q9UKI8).
T4 construct: purchased DiscoveRx (Fremont, CA)
In words: KinomeScan. Format: binding. The settings on record: read-out: % Control.

The next test addresses T5, YES (Homo sapiens, UniProt P07947).
T5 construct: purchased DiscoveRx
In words: KinomeScan. It is filed as binding. To be noted: read-out: % Control.

The next test concerns the target T6, CAMKK1 (Homo sapiens, UniProt Q8N5S9).
T6 construct: purchased DiscoveRx (KinomeScan service)
In words: KinomeScan. It is filed as binding. The settings on record: read-out: % Control.

The target of a further test is T7, PIK3CD (Homo sapiens, UniProt O00329).
T7 construct: purchased DiscoveRx (Fremont, CA)
In words: KinomeScan. Format: binding. To be noted: read-out: % Control.

The next test concerns the target T8, EPHB3 (Homo sapiens, UniProt P54753).
T8 construct: purchased DiscoveRx (Fremont, CA)
The test can be described thus: KinomeScan. It is filed as binding. To be noted: read-out: % Control.

Test [2] has as its target T9, EGFR(L747-S752del, P753S) (Homo sapiens, UniProt P00533, DEL747-752/P753S).
T9 construct: purchased DiscoveRx (Fremont, CA), KinomeScan service
The test can be described thus: KinomeScan. It is filed as binding. The settings on record: read-out: % Control.

In another test the target is T10, RET (Homo sapiens, UniProt P07949).
T10 construct: purchased DiscoveRx (Fremont, CA)
T10 sequence (P07949 29-1114): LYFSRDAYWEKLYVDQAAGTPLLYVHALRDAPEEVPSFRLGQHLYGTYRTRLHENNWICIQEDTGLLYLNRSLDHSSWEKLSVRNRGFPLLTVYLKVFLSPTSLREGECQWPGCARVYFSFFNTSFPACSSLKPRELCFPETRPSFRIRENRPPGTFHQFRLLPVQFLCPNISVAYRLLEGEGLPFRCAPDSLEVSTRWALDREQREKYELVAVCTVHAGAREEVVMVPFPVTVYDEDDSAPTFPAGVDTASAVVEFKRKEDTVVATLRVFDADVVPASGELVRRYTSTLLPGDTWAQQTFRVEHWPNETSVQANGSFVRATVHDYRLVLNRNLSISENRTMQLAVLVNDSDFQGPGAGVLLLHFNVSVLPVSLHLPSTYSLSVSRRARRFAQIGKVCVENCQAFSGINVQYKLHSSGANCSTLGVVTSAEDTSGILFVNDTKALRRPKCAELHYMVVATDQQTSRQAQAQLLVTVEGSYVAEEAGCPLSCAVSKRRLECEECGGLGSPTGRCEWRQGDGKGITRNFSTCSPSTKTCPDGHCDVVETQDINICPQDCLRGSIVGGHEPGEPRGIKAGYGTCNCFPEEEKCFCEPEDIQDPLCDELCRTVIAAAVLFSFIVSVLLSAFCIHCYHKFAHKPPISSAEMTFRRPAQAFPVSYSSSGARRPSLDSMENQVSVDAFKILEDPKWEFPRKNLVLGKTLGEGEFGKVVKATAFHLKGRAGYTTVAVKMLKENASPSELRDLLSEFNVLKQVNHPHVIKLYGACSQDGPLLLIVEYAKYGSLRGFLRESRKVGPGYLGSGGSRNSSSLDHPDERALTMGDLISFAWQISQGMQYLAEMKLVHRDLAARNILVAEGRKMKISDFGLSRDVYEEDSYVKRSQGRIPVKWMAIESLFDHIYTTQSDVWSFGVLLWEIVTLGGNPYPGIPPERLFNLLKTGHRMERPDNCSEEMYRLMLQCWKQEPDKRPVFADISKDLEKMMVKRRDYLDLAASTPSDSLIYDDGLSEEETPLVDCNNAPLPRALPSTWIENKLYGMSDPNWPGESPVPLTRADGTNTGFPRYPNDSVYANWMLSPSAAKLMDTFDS
In words: KinomeScan. Format: binding. The settings on record: read-out: % Control.

For a further test, the target named is T11, EGFR (Homo sapiens, UniProt P00533).
T11 construct: purchased DiscoveRx (Fremont, CA), KinomeScan service
The test can be described thus: KinomeScan. Format: binding. To be noted: read-out: % Control.

A further test has as its target T12, P2Y1 (Homo sapiens, UniProt P47900).
T12 construct: host or cells: Chem-1 cells expressing Gα15
The test can be described thus: GPCR Profiler. It is filed as cell-based.

The target in another test is T13, CAMKK2 (Homo sapiens, UniProt Q96RR4).
T13 construct: purchased DiscoveRx (KinomeScan service)
The test can be described thus: KinomeScan. The settings on record: read-out: % Control. It is filed as binding.

For another test, the target named is T14, D4 (Homo sapiens, UniProt P21917).
T14 construct: host or cells: Chem-1 cells expressing Gα15
T14 sequence (P21917 whole entry): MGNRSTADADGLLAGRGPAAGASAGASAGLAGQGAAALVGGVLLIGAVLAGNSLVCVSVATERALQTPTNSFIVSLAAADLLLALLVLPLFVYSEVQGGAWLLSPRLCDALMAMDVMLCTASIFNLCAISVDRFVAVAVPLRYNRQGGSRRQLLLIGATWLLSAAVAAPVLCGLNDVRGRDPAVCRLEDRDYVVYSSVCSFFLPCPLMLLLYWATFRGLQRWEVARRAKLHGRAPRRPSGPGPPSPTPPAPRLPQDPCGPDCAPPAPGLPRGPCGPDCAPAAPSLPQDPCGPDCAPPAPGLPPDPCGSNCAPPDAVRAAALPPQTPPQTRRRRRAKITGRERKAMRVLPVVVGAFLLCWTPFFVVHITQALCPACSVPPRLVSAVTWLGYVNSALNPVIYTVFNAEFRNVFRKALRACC
The test can be described thus: GPCR Profiler. It is filed as cell-based.

Another test deals with T15, p38-gamma (Homo sapiens, UniProt P53778).
T15 construct: purchased DiscoveRx
In words: KinomeScan. It is filed as binding. To be noted: read-out: % Control.

Another test addresses T16, MAP3K2 (Homo sapiens, UniProt Q9Y2U5).
T16 construct: purchased DiscoveRx (Fremont, CA)
The test can be described thus: KinomeScan. Format: binding. To be noted: read-out: % Control.

Another test concerns the target T17, NEK4 (Homo sapiens, UniProt P51957).
T17 construct: purchased DiscoveRx
In words: KinomeScan. Format: binding. The settings on record: read-out: % Control.

The next test concerns the target T18, TNIK (Homo sapiens, UniProt Q9UKE5).
T18 construct: purchased DiscoveRx (Fremont, CA)
In words: KinomeScan. It is filed as binding. To be noted: read-out: % Control.

The target in a further test is T19, EGFR(E746-A750del) (Homo sapiens, UniProt P00533, DEL746-750).
T19 construct: purchased DiscoveRx (Fremont, CA), KinomeScan service
T19 sequence (P00533 with tags, fused parts or gaps DEL746-750): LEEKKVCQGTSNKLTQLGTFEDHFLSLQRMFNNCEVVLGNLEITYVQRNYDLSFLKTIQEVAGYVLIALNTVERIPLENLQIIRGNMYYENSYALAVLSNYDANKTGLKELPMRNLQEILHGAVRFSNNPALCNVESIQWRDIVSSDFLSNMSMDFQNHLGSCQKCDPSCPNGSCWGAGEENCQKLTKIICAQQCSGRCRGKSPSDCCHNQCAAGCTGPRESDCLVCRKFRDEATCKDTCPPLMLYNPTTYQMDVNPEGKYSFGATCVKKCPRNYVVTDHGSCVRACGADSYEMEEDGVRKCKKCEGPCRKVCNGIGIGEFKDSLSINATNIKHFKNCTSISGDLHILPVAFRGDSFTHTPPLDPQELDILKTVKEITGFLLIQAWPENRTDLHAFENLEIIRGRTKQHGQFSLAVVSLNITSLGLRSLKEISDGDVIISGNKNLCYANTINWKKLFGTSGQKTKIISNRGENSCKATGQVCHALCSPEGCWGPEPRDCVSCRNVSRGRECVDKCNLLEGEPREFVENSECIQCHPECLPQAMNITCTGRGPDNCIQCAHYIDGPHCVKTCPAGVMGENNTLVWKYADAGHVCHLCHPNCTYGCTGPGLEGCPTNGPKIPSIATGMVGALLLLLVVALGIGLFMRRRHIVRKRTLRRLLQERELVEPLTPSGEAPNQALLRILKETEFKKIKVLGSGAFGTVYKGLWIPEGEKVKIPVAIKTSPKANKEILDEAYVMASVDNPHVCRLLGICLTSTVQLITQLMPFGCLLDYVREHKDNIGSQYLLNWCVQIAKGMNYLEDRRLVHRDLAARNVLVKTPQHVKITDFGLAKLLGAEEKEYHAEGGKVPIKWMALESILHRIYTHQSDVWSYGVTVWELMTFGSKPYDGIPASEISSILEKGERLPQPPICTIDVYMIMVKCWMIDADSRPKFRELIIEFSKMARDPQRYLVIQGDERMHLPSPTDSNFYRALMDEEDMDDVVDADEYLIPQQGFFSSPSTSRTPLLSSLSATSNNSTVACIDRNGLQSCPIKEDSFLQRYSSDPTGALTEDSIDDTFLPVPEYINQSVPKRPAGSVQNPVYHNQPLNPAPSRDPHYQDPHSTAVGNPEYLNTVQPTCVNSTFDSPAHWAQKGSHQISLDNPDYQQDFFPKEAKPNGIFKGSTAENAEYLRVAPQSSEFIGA
In words: KinomeScan. Format: binding. The settings on record: read-out: % Control.

For a further test, the target named is T20, BB1 (Homo sapiens, UniProt P28336).
T20 construct: host or cells: Chem-1 cells with promiscuous Gα15
T20 sequence (P28336 whole entry): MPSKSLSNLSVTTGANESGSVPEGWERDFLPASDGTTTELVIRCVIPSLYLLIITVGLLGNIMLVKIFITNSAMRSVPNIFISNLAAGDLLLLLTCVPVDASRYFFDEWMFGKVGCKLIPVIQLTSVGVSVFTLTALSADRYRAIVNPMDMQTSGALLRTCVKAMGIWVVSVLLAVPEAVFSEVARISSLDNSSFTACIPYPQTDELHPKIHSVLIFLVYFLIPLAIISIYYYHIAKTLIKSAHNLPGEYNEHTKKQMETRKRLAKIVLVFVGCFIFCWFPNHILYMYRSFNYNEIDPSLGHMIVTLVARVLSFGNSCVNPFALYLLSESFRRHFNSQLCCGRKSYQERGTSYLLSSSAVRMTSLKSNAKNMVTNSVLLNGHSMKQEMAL
In words: GPCR Profiler. It is filed as cell-based.

The target in the next test is T21, FAK (Homo sapiens, UniProt Q05397).
T21 construct: purchased DiscoveRx (Fremont, CA)
The test can be described thus: KinomeScan. Format: binding. To be noted: read-out: % Control.

The test system of the next test is Hep G2. The test can be described thus: Cell Titer-Glo viability, Hepatocellular cancer. It is filed as cell-based. On the procedure: OGM2 kills wide variety of cancer cell types. Cell sensitivity can be classified in to Very Sensitive (LC50<2 μM), Sensitive (LC50=2 to 10 μM), Mildly Sensitive (LC50>10 μM), and Refractory (no killing at 10 μM). The listed established cell were incubated with OGM2 at 2 μM or 10 μM for 72 hours under standard cell culture conditions, and relative cell number was assessed using Cell Titer-Glo Luminescent Cell Viability Assay (Promega™) following the manufacturer's instructions. Luminescence was determined using a Cytation 5 reader and Gen5 software package (BioTek™).
Cancer cells, which are very sensitive to killing by OGM2 (LCs <2 μM), with reported mRNA expression of GPR68 and the related proton sensing receptor GPR4. LC50's (concentrations causing 50% lethality) were determined using CellTiter-Glo (Promega™, G7570). Cells were plated in 12-well plates (CELLTREAT Scientific Products, 229112) in 1 ml of DMEM with high glucose, GlutaMAX, HEPES, or RPMI 1640 with Penicillin-Streptomycin (ThermoFisher™, 10564029, 11875119 and 15140122) and 10% FBS. Cells were incubated overnight at 37° C. in 5% CO2. Then 1 mL of fresh media was added with DMSO, OGM, or positive control (Erastin; APExBIO Technology, LLC, B1524) and cells incubated for 3 days. On the third day, all media was removed, cells were rinsed with 1×PBS, PBS was removed, and 200 μL of 1× Passive Lysis Buffer (Promega™, E1941) was added to each well. […]. Subsequently, 20 μL of lysate was added to 100 μL CellTiter-Glo™ reagent on a LUMITRAC 200 plate (Greiner™ bio-one, 82050-726). Plates were briefly spun down and read on a GloMax-Multi Detection System (Promega™).
The cells listed in the tables above were incubated with OGM2 at 2 μM or 10 μM for 72 hours under standard cell culture conditions, and relative cell number was assessed using Cell Titer-Glo Luminescent Cell Viability Assay (Promega™) following the manufacturer's instructions. Luminescence was determined using a Cytation 5 reader and Gen5 software package (BioTek™). RNA expression of GPR68 and GPR4 in the corresponding cancer cell lines are listed, according to the publicly available The Human Protein Atlas version 22.0 and Ensembl version 103.38 (see proteinatlas.org). The consensus normalized expression value (“nTPM”=normalize transcript per million) was calculated as the maximum nTPM value for each gene in the two data sources.
A general note: Cellular ATP, detected with luciferase, serves as a proxy for viable cell number.

Structures are written as SMILES.

T12 sequence (P47900 whole entry, species assumed): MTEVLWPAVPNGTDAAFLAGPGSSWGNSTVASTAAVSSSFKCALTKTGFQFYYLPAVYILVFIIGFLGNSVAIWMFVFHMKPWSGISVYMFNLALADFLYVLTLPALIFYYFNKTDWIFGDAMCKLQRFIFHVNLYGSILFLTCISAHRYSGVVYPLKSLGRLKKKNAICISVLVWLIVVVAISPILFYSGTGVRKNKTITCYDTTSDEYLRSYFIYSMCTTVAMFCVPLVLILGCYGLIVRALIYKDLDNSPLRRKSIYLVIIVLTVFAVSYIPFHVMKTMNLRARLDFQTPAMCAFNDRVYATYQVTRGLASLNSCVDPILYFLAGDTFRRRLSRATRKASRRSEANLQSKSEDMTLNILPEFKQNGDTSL
T16 sequence (Q9Y2U5 whole entry): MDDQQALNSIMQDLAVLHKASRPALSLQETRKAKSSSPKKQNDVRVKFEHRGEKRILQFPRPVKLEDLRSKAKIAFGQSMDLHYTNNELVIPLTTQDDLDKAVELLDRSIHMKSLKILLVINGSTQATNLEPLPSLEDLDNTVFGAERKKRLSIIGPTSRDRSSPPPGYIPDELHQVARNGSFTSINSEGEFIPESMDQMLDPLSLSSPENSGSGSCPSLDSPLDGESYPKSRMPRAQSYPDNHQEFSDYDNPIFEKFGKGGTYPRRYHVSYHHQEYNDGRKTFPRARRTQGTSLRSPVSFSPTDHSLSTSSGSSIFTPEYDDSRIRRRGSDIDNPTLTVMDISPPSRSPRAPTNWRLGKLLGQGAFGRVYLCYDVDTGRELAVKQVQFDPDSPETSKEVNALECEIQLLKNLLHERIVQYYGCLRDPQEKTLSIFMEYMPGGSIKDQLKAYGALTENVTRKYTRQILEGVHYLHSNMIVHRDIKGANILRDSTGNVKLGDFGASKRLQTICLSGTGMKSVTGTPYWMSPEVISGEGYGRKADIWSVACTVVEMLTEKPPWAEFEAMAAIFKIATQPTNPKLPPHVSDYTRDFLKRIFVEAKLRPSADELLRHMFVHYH
T8 sequence (P54753 34-998): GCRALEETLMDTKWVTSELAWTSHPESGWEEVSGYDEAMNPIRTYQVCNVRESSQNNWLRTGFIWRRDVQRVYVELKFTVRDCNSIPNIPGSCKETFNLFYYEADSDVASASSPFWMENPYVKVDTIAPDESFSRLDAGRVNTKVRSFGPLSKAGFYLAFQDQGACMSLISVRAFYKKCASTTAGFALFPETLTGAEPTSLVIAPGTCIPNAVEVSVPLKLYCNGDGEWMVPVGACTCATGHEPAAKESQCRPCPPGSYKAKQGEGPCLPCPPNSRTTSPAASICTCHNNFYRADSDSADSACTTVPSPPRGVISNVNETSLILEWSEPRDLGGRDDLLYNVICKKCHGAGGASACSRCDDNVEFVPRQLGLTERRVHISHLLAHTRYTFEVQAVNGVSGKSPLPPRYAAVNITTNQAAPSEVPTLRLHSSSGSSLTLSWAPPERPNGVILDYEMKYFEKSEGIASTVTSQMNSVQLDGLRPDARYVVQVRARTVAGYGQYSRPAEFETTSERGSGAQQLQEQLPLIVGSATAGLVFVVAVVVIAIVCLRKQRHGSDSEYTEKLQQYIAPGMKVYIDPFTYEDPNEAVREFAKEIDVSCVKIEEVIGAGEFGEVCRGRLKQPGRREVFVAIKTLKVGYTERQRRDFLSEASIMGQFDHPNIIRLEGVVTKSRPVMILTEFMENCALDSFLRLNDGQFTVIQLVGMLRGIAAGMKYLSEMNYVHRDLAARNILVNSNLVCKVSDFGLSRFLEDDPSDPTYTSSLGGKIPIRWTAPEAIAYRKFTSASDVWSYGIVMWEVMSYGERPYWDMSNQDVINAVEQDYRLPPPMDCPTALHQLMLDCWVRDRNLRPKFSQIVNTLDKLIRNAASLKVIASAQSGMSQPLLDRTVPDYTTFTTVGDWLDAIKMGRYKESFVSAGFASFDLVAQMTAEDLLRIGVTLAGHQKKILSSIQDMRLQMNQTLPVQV

As to `CCc1ccc2c(c1)C1(NN=C(c3cccc4ccccc34)S1)C(=O)N2` (centres unmarked) [OGM1, 5-ethyl-5′-naphthalen-1-ylspiro[1H-indole-3,2′-3H-1,3,4-thiadiazole]-2-one], the Antagonism on GPR99 (10 uM) is given as 0.5; on P2Y1 (10 uM), −6.3; at D4 (10 uM) it was −16.3; at BB1 (10 uM), 3.5. Also, the Agonism is reported as 6.5 on GPR99 (12.5 uM), 1.7 on P2Y1 (12.5 uM), 0.6 at D4 (12.5 uM) and −0.2 on BB1 (12.5 uM). In addition, the remaining binding at 10 µM amounted to 68% on MET(M1250T); 54% in test [1]; 53% at TLK1; 100% on YES; 86% on CAMKK1; 55% on PIK3CD. For the same compound, the remaining binding at 10 µM at EPHB3 amounted to 100%; in [2], 99%; at RET it was 100%; on EGFR, 100%; at CAMKK2, 89%; on p38-gamma, 94%. Further, the remaining binding at 10 µM came to 92% at MAP3K2; 100% on NEK4; 71% at TNIK; 100% on EGFR(E746-A750del); 88% on FAK.
`CCc1ccc2c(c1)C1(NN=C(c3ccccc3)S1)C(=O)N2` (centres unmarked) [OGM2]: the Class entry with Hep G2 is listed as “Sensitive (Sensitive (LC50=2 to 10 μM))”. Also, in the test on Hep G2 (72 hours), the “% Survival 2 μM OGM” value was 66.8% and the “% Survival 10 μM OGM” value is 45.7%. Besides, the CC50 in the test with Hep G2 (Homo sapiens, HepG2, 72 hours, read-out: LC50 (the source's name)) fell in the range of 2 to 10 µM.
